Data taken from paper PMC8605905 (Oxidative Medicine and Cellular Longevity, 2021).
Entries after “also recorded” stand apart in the source; their conditions may differ.

Columns and labels:
Type in all cases: cell-based, Human
CRE-GFP 293 cells [1] = assay: CRE-GFP 293 reporter cell assay (flow cytometry); conditions: for Effect of kinase inhibitor on LM-021-activated GFP levels: inhibitor 10 μM 4 h before LM-021 10 μM, presence or absence of Ca2+ ionophore
Text: Using the pCRE-MetLuc2-Reporter plasmid (Clontech, Mountain View, CA, USA) as a template, the DNA fragment containing the cAMP response element (CRE) motifs and TATA-like promoter (PTAL) flanked by MluI and AgeI restriction sites was amplified by PCR using sense ([…], MluI site underlined) and antisense ([…], AgeI site underlined) primers. The amplified CRE-PTAL promoter fragment was cloned into pGEM-T Easy (Promega, Madison, WI, USA) and sequenced. The CRE-PTAL-containing MluI/AgeI fragment and GFP-containing AgeI/NotI fragment (from pEGFP-N1; Clontech) were subcloned into MluI- and NotI-digested pcDNA5/FRT/TO (Novagen, Madison, WI, USA). The resulting construct with CRE-PTAL-driving GFP was used to establish 293 GFP reporter cells by targeting insertion into Flp-In-293 cells according to the supplier's instructions (Invitrogen). The cells were grown in a medium containing 5 μg/ml blasticidin and 100 μg/ml hygromycin.
On day 1, CRE-GFP 293 cells were seeded into 48-well plates (5 × 10^4/well). After 24 h, cells were treated with Ca^2+ ionophore (2 μM) (Sigma-Aldrich) for 0–24 h. Cell viability was measured using 3,(4,5-dimethylthiazol-2-yl)-2,5-diphenyltetrazolium bromide (MTT) assay (Sigma-Aldrich). The absorbance of the insoluble purple formazan dye was quantified at 570 nm on a μQuant microplate spectrophotometer (Bio-Tek). In addition, the cells were treated with the Ca^2+ ionophore A23187 (0.5–10 μM) (Sigma-Aldrich) for 5 h, followed by analysis of GFP fluorescence by flow cytometry (Becton–Dickinson, Franklin Lakes, NJ, USA) with excitation/emission wavelengths at 488/507 nm. To monitor CREB activation, cells were treated with forskolin or coumarin-chalcone derivatives (5–10 μM) in the presence or absence of Ca^2+ ionophore (2 μM) for 5 h, and GFP fluorescence was analysed.
(§1) To monitor the cAMP-mediated signal transduction pathway, CRE-GFP 293 cells in 6-well plates (1 × 10^6/well) were pretreated with kinase inhibitor H-89 (LC Laboratories, Woburn, MA, USA), KN-62 (Cayman Chemical, Ann Arbor, MI, USA), U0126 (LC Laboratories), or wortmannin (LC Laboratories) (10 μM) for 4 h before forskolin or LM-021 (10 μM) addition for 5 h. GFP fluorescence/protein and total/phosphorylated PKA, CaMKII, ERK, PI3K, and CREB levels were examined. In addition, Aβ-GFP or ∆K280 tauRD-DsRed SH-SY5Y cells were treated with retinoic acid (10 μM) on day 1, followed by the addition of LM-021 (5 or 10 μM) and doxycycline (5 or 2 μg/ml) on day 2, as described. Kinase inhibitors (10 μM) were added on day 6. On day 8, the cells were collected for protein expression analysis of BDNF, BCL2 (BCL2 apoptosis regulator), and BAX (BCL2 associated X, apoptosis regulator), and total/phosphorylated PKA, CaMKII, ERK, PI3K, and CREB. Also, cells were stained with DAPI and assessed for neurite outgrowth as described above.

Aβ-GFP SH-SY5Y cells [2] = assay: Western blot in Aβ-GFP SH-SY5Y cells; conditions: inhibitor 10 μM on day 6, LM-021 5 μM
Procedure: as §1
(§2) Total proteins from CRE-GFP 293 and Aβ-GFP, ∆K280 tauRD-DsRed SH-SY5Y cells were extracted using lysis buffer (50 mM Tris-HCl (pH 8.0), 150 mM NaCl, 1 mM EDTA (pH 8.0), 1 mM EGTA (pH 8.0), 0.1% SDS, 0.5% sodium deoxycholate, 1% Triton X-100) containing phosphatase and protease inhibitor cocktails (Sigma-Aldrich). Protein concentrations were measured using a protein assay kit (Bio-Rad, Hercules, CA, USA), and 20 μg of proteins was separated with 10% SDS-PAGE and blotted onto polyvinylidene difluoride (PVDF) membranes (Sigma-Aldrich). After blocking, the membrane blot was incubated with primary antibody against GFP (1 : 500; Santa Cruz Biotechnology, Santa Cruz, CA, USA), PKA (1 : 1000; R&D Systems, Minneapolis, MN, USA), p-PKA (T197) (1 : 1000; Cell Signaling, Danvers, MA, USA), ERK (1 : 500; Cell Signaling), p-ERK (T202/Y204) (1 : 500; Cell Signaling), CaMKII (1 : 1000; Santa Cruz Biotechnology), p-CaMKII (T286) (1 : 1000; Cell Signaling), CREB (1 : 1000; Santa Cruz Biotechnology), p-CREB (S133) (1 : 1000; Millipore, Billerica, MA, USA), BDNF (1 : 500; Santa Cruz Biotechnology), BCL2 (1 : 500; BioVision), BAX (1 : 500; BioVision), GAPDH (glyceraldehyde-3-phosphate dehydrogenase, as a loading control) (1 : 1000; MDBio, Taipei, Taiwan), or β-tubulin (1 : 1000, Sigma-Aldrich, as a loading control). The immune complexes were visualized using horseradish peroxidase-conjugated goat anti-mouse or goat anti-rabbit IgG antibody (1 : 5000, GeneTex, Irvine, CA, USA) and a chemiluminescent substrate (Millipore).

[3] = test system: ∆K280 tauRD-DsRed SH-SY5Y cells; assay: Western blot in ΔK280 tauRD-DsRed SH-SY5Y cells; conditions: inhibitor 10 μM on day 6, LM-021 10 μM
Procedure: as §1, §2

[4] = test system: ∆K280 tauRD-DsRed SH-SY5Y cells; assay: High content analysis of neurite outgrowth in ΔK280 tauRD-DsRed cells; conditions: inhibitor 10 μM on day 6, LM-021 10 μM
Procedure: (§3) On day 1, Aβ-GFP or ∆K280 tauRD-DsRed SH-SY5Y cells were plated into 24-well plates (6 × 10^4/well) followed by addition of retinoic acid. On day 2, cells were treated with coumarin-chalcone derivatives (5 or 10 μM) and with doxycycline (5 or 2 μg/ml) to induce the expression of Aβ-GFP or ∆K280 tauRD-DsRed. On day 8, 4% paraformaldehyde, 0.1% Triton X-100, and 3% BSA were used to fix, permeabilize, and block cells, respectively. Subsequently, the cells were stained with TUBB3 (neuronal class III β-tubulin) primary antibody (1 : 1000; Covance, Princeton, NJ, USA) at 4°C overnight. Goat anti-rabbit Alexa Fluor 555 secondary antibody (1 : 1000; Thermo Fisher Scientific) was then added, followed by a 3 h incubation at room temperature. Following staining nuclei with 4′,-6-diamidino-2-phenylindole (DAPI) (0.1 μg/ml; Sigma-Aldrich), the neurons were imaged by using the HCA system and analysed by using the Neurite Outgrowth Application Module (MetaXpress; Molecular Devices).
as §1

CRE-GFP 293 cells [5] = assay: Western blot in CRE-GFP 293 cells; conditions: inhibitor 10 μM, LM-021 10 μM, without Ca2+ ionophore, immunoblot
Procedure: as §1
Total proteins from CRE-GFP 293 and Aβ-GFP, ∆K280 tauRD-DsRed SH-SY5Y cells were extracted using lysis buffer (50 mM Tris-HCl (pH 8.0), 150 mM NaCl, 1 mM EDTA (pH 8.0), 1 mM EGTA (pH 8.0), 0.1% SDS, 0.5% sodium deoxycholate, 1% Triton X-100) containing phosphatase and protease inhibitor cocktails (Sigma-Aldrich). Protein concentrations were measured using a protein assay kit (Bio-Rad, Hercules, CA, USA), and 20 μg of proteins was separated with 10% SDS-PAGE and blotted onto polyvinylidene difluoride (PVDF) membranes (Sigma-Aldrich). […]

Aβ-GFP SH-SY5Y cells [6] = assay: High content analysis of neurite outgrowth in Aβ-GFP cells; conditions: inhibitor 10 μM on day 6, LM-021 5 μM
Procedure: as §3, §1

| Compound | Effect of kinase inhibitor on LM-021-activated GFP levels (CRE-GFP 293 cells [1]) | Effect of kinase inhibitor on forskolin-activated GFP level (CRE-GFP 293 cells [1]; inhibitor 10 μM 4 h before forskolin 10 μM, presence of Ca2+ ionophore) | Effect of kinase inhibitor on LM-021-upregulated kinase phosphorylation (Aβ-GFP SH-SY5Y cells [2]) | Effect of kinase inhibitor on LM-021 increase in p-CREB, pro-BDNF, m-BDNF, and BCL2 (Aβ-GFP SH-SY5Y cells [2]) | Effect of kinase inhibitor on LM-021-upregulated kinase phosphorylation [3] | Effect of kinase inhibitor on LM-021 upregulation of p-CREB, pro-BDNF, m-BDNF, and BCL2 [3] | Effect of kinase inhibitor on LM-021-ameliorated neurite length and branch length [4] | Effect of kinase inhibitor on increased p-CREB and GFP protein levels (CRE-GFP 293 cells [5]) | Effect of kinase inhibitor on LM-021-improved neurite length, processes, and branches (Aβ-GFP SH-SY5Y cells [6]) |
| --- | --- | --- | --- | --- | --- | --- | --- | --- | --- |
| O=S(=O)(NCCNC/C=C/c1ccc(Br)cc1)c1cccc2cnccc12 [H-89] | attenuated the GFP levels | attenuated the GFP level | mitigated the increase of p-PKA | attenuated the increase | reduced the upregulation of p-PKA | attenuated the upregulation | reversed these effects | significantly reduced | counteracted these improvements |
| CN([C@@H](Cc1ccc(OS(=O)(=O)c2cccc3cnccc23)cc1)C(=O)N1CCN(c2ccccc2)CC1)S(=O)(=O)c1cccc2cnccc12 [KN-62] | attenuated the GFP levels |  | mitigated the upregulation of p-CaMKII; also recorded: normalized p-ERK | attenuated the increase | diminished the increase of p-CaMKII | attenuated the upregulation | reversed these effects | significantly reduced | counteracted these improvements |
| N#CC(=C(/N)Sc1ccccc1N)/C(C#N)=C(/N)Sc1ccccc1N [U0126] | attenuated the GFP levels |  | normalized p-ERK | attenuated the increase | attenuated the rescue of p-ERK | attenuated the upregulation | reversed these effects | significantly reduced | counteracted these improvements |
